In brackets after ≈: the same amount, converted by molar mass.
tested on: Mycobacterium tuberculosis H37Rv; experiment: Antitubercular activity, growth inhibition by Alamar-Blue / resazurin microtiter assay; type: cell-based; conditions: H37RV

Structure (SMILES)	MIC
Cc1c(CN2CC[Si](C)(C)CC2)cc(-c2ccc(Cl)cc2)n1-c1ccc(Cl)cc1 [Compound 9, 1-((1,5-bis(4-chlorophenyl)-2-methyl-1H-pyrrol-3-yl)methyl)-4,4-dimethyl-1,4-azasilinane]	0.04 µg/mL (≈ 0.0902 µM)
CSc1ccc(-c2cc(CN3CC[Si](C)(C)CC3)c(C)n2-c2ccc(F)cc2)cc1 [Compound 10a, 1-((1-(4-fluorophenyl)-2-methyl-5-(4-(methylthio)phenyl)-1H-pyrrol-3-yl)methyl)-4,4-dimethyl-1,4-azasilinane]	0.08 µg/mL (≈ 0.182 µM)
CSc1ccc(-c2c(CN3CC[Si](C)(C)CC3)cc(C)n2-c2ccc(F)cc2)cc1 [Compound 10b, 1-((1-(4-fluorophenyl)-5-methyl-2-(4-(methylthio)phenyl)-1H-pyrrol-3-yl)methyl)-4,4-dimethyl-1,4-azasilinane]	1.56 µg/mL (≈ 3.56 µM)
Cc1c(CN2CC[Si](C)(C)CC2)cc(-c2ccc(C(C)C)cc2)n1-c1ccc(Cl)cc1 [Compound 11a, 1-((1-(4-chlorophenyl)-5-(4-isopropylphenyl)-2-methyl-1H-pyrrol-3-yl)methyl)-4,4-dimethyl-1,4-azasilinane]	0.04 µg/mL (≈ 0.0887 µM)
CSc1ccc(-c2cc(CN3CC[Si](C)(C)CC3)c(C)n2-c2ccc(C(C)C)cc2)cc1 [Compound 12a, 1-((1-(4-isopropylphenyl)-2-methyl-5-(4-(methylthio)phenyl)-1H-pyrrol-3-yl)methyl)-4,4-dimethyl-1,4-azasilinane]	0.04 µg/mL (≈ 0.0864 µM)
CSc1ccc(-c2c(CN3CC[Si](C)(C)CC3)cc(C)n2-c2ccc(C(C)C)cc2)cc1 [Compound 12b, 1-((1-(4-isopropylphenyl)-5-methyl-2-(4-(methylthio)phenyl)-1H-pyrrol-3-yl)methyl)-4,4-dimethyl-1,4-azasilinane]	1.25 µg/mL (≈ 2.7 µM)
CCc1ccc(-n2c(-c3ccc(Cl)cc3)cc(CN3CC[Si](C)(C)CC3)c2C)cc1 [Compound 13, 1-((5-(4-chlorophenyl)-1-(4-ethylphenyl)-2-methyl-1H-pyrrol-3-yl)methyl)-4,4-dimethyl-1,4-azasilinane]	0.08 µg/mL (≈ 0.183 µM)
COc1ccc(-c2c(CN3CC[Si](C)(C)CC3)cc(C)n2-c2ccc(F)cc2)cc1 [Compound 14, 1-((1-(4-fluorophenyl)-2-(4-methoxyphenyl)-5-methyl-1H-pyrrol-3-yl)methyl)-4,4-dimethyl-1,4-azasilinane]	3.12 µg/mL (≈ 7.38 µM)
Cc1c(CN2CC[Si](C)(C)CC2)cc(-c2ccc(Cl)cc2)n1-c1ccccc1 [Compound 15, 1-((5-(4-chlorophenyl)-2-methyl-1-phenyl-1H-pyrrol-3-yl)methyl)-4,4-dimethyl-1,4-azasilinane]	0.04 µg/mL (≈ 0.0978 µM)
CCc1ccc(-c2cc(CN3CC[Si](C)(C)CC3)c(C)n2-c2ccc(OC)cc2)cc1 [Compound 16, 1-((5-(4-ethylphenyl)-1-(4-methoxyphenyl)-2-methyl-1H-pyrrol-3-yl)methyl)-4,4-dimethyl-1,4-azasilinane]	0.08 µg/mL (≈ 0.185 µM)
Cc1ccc(-c2cc(CN3CC[Si](C)(C)CC3)c(C)n2-c2ccc(F)cc2)cc1 [Compound 17, 1-((1-(4-fluorophenyl)-2-methyl-5-(p-tolyl)-1H-pyrrol-3-yl)methyl)-4,4-dimethyl-1,4-azasilinane]	0.04 µg/mL (≈ 0.0984 µM)
CCOc1ccc(-c2c(CN3CC[Si](C)(C)CC3)cc(C)n2-c2ccc(OC)cc2)cc1 [Compound 18, 1-((2-(4-ethoxyphenyl)-1-(4-methoxyphenyl)-5-methyl-1H-pyrrol-3-yl)methyl)-4,4-dimethyl-1,4-azasilinane]	5 µg/mL (≈ 11.1 µM)
Cc1c(CN2CC[Si](C)(C)CC2)cc(-c2ccc(Cl)cc2)n1-c1ccc(C(C)C)cc1 [Compound 19, 1-((5-(4-chlorophenyl)-1-(4-isopropylphenyl)-2-methyl-1H-pyrrol-3-yl)methyl)-4,4-dimethyl-1,4-azasilinane]	0.04 µg/mL (≈ 0.0887 µM)

same assay, conditions: H37Rv, 7H9-OADC media with 0.5% glycerol and 1 mg ml−1 tryptone, 37° C., 96-well plates, visual readout, read-out: MIC

Structure (SMILES)	MIC
Cc1c(CN2CCN(C)CC2)cc(-c2ccc(Cl)cc2)n1-c1ccc(Cl)cc1 [BM212, 1,5-diaryl-2-methyl-3-(4-methylpiperazin-1-yl)methyl-pyrrole, reference compound]	1.56 µg/mL (≈ 3.76 µM)

tested on: Mycobacterium tuberculosis H37Rv; experiment: not given; conditions: according to literature (Biava. M et. al; J. Med. Chem 2008; 51; 3644); cited from earlier work

Structure (SMILES)	MIC
Cc1c(CN2CCN(C)CC2)cc(-c2ccc(Cl)cc2)n1-c1ccc(Cl)cc1 [BM212, 1,5-diaryl-2-methyl-3-(4-methylpiperazin-1-yl)methyl-pyrrole, reference compound]	0.7 µg/mL (≈ 1.69 µM)

— patent US9657037B2, “Pyrrole compounds with silicon incorporation” (COUNCIL OF SCIENTIFIC AND INDUSTRIAL RESEARCH, priority 2013, dated 2017)
